In article PMC10477861, “Efficient Mining of Anticancer Peptides from Gut Metagenome” (Advanced Science, 2023):

Legend:
Conditions in all cases: 25 µM pACP, 24 h, maintenance medium 1% FBS, ratio of viability to vehicle (PBS), at least three technical repetitions
HT29 = assay: MTT primary screening of anticancer activity, HT29; type: cell-based, Human
From the text: (§1) We successfully chemically synthesized 40 pACPs for the purpose of in vitro or in vivo characterization of their potential anticancer efficacy. In the initial step, we conducted an in vitro primary screen of these 40 pACPs using a panel of 16 different cancer cell lines, including four human CRC lines (HT29, Caco2, HCT116, and […]), as well as 12 other cancer models (Table S4, Supporting Information). We deliberately selected a diverse panel of cell lines to assess the effect of pACPs across various genetic backgrounds. Briefly, the cancer cells were cultured in specific media (details provided in the Experimental Section) and then treated with pACPs at a final concentration of 25 µM. Peptides with minimum effective inhibition concentrations >25 µM were considered non‐ACPs. After exposure to pACPs, the survival rate of the cancer cells was measured using the MTT assay. Remarkably, 39 out of the 40 pACPs (97.5%) induced at least 20% inhibition in at least one cell line (Figure 3a and Table S5, Supporting Information). […] Thus, our method successfully identified pACPs with a very high rate of anticancer effects across various cancer cell lines.
(§2) To evaluate the activity of the 40 potentially effective pACPs, a panel of 16 cancer cell lines was treated, including human CRC cell lines (HT29, Caco‐2, HCT116). Details of the cell lines used, respective media, and culture conditions were presented in Table S1 (Supporting Information). Once the cells reached 60% confluence, it was incubated with each candidate peptide at a concentration of 25 µM pACPs for 24 h. Concurrently, the complete medium was replaced with a maintenance medium containing only 1% FBS. Subsequently, the viability of each cell line using the MTT Cell Proliferation and Cytotoxicity Assay Kit according to the manufacturer's instructions was assessed. […] For the CRC cell line CT26, it was calculated the CC50 value using two peptides (pACP1780 and pACP2283) with relevant data presented in Table S6 (Supporting Information). The calculation was performed using an online tool: https://www.aatbio.com/tools/ic50‐calculator.

Caco2 = assay: MTT primary screening of anticancer activity, Caco2; type: cell-based, Human
From the text: as §1, §2

HCT116 = assay: MTT primary screening of anticancer activity, HCT116; type: cell-based, Human
From the text: as §1, §2

CT26 = assay: MTT primary screening of anticancer activity, CT26; type: cell-based, Murine
From the text: as §1, §2

MDA-MB-231 = assay: MTT primary screening of anticancer activity, MDA-MB-231; type: cell-based
From the text: as §1, §2

MDA-MB-436 = assay: MTT primary screening of anticancer activity, MDA-MB-436; type: cell-based
From the text: as §1, §2

MDA-MB-453 = assay: MTT primary screening of anticancer activity, MDA-MB-453; type: cell-based
From the text: as §1, §2

MDA-MB-468 = assay: MTT primary screening of anticancer activity, MDA-MB-468; type: cell-based
From the text: as §1, §2

SK-BR-3 = assay: MTT primary screening of anticancer activity, SK-BR-3; type: cell-based
From the text: as §1, §2

BT474 = assay: MTT primary screening of anticancer activity, BT474; type: cell-based
From the text: as §1, §2

T47D = assay: MTT primary screening of anticancer activity, T47D; type: cell-based
From the text: as §1, §2

EFM192A = assay: MTT primary screening of anticancer activity, EFM192A; type: cell-based
From the text: as §1, §2

B16 = assay: MTT primary screening of anticancer activity, B16; type: cell-based, Mouse
From the text: as §1, §2

MCF7 = assay: MTT primary screening of anticancer activity, MCF7; type: cell-based
From the text: as §1, §2

Hela = assay: MTT primary screening of anticancer activity, Hela; type: cell-based, Human
From the text: as §1, §2

LCC = assay: MTT primary screening of anticancer activity, LCC; type: cell-based
From the text: as §1, §2

Sequence: RCPCKGNTHRRYSIMFCNFDCASLLKLLCGFFGKC [pACP1621]
- Survival rate of cancer cells in primary screening (HT29): 1.00
- Survival rate of cancer cells in primary screening (Caco2): 1.00
- Survival rate of cancer cells in primary screening (HCT116): 1.00
- Survival rate of cancer cells in primary screening (CT26): 1.00
- Survival rate of cancer cells in primary screening (MDA-MB-231): 1.00
- Survival rate of cancer cells in primary screening (MDA-MB-436): 1.00
- Survival rate of cancer cells in primary screening (MDA-MB-453): 1.00
- Survival rate of cancer cells in primary screening (MDA-MB-468): 1.00
- Survival rate of cancer cells in primary screening (SK-BR-3): 1.00
- Survival rate of cancer cells in primary screening (BT474): 1.00
- Survival rate of cancer cells in primary screening (T47D): 0.72
- Survival rate of cancer cells in primary screening (EFM192A): 0.79
- Survival rate of cancer cells in primary screening (B16): 0.79
- Survival rate of cancer cells in primary screening (MCF7): 1.00
- Survival rate of cancer cells in primary screening (Hela): 1.00
- Survival rate of cancer cells in primary screening (LCC): 1.00

Sequence: GNPAKQEIKVPGALGKGSCVQSGAGVGPRCRVPCGPLSGGMALFCYE [pACP555]
- Survival rate of cancer cells in primary screening (HT29): 1.00
- Survival rate of cancer cells in primary screening (Caco2): 1.00
- Survival rate of cancer cells in primary screening (HCT116): 1.00
- Survival rate of cancer cells in primary screening (CT26): 1.00
- Survival rate of cancer cells in primary screening (MDA-MB-231): 1.00
- Survival rate of cancer cells in primary screening (MDA-MB-436): 1.00
- Survival rate of cancer cells in primary screening (MDA-MB-453): 1.00
- Survival rate of cancer cells in primary screening (MDA-MB-468): 1.00
- Survival rate of cancer cells in primary screening (SK-BR-3): 1.00
- Survival rate of cancer cells in primary screening (BT474): 1.00
- Survival rate of cancer cells in primary screening (T47D): 0.74
- Survival rate of cancer cells in primary screening (EFM192A): 1.00
- Survival rate of cancer cells in primary screening (B16): 0.75
- Survival rate of cancer cells in primary screening (MCF7): 1.00
- Survival rate of cancer cells in primary screening (Hela): 1.00
- Survival rate of cancer cells in primary screening (LCC): 1.00

Sequence: YRKCDTAGGLSKLCVAEKDIKIIWKYGGR [pACP2334]
- Survival rate of cancer cells in primary screening (HT29): 1.00
- Survival rate of cancer cells in primary screening (Caco2): 1.00
- Survival rate of cancer cells in primary screening (HCT116): 1.00
- Survival rate of cancer cells in primary screening (CT26): 1.00
- Survival rate of cancer cells in primary screening (MDA-MB-231): 1.00
- Survival rate of cancer cells in primary screening (MDA-MB-436): 1.00
- Survival rate of cancer cells in primary screening (MDA-MB-453): 1.00
- Survival rate of cancer cells in primary screening (MDA-MB-468): 1.00
- Survival rate of cancer cells in primary screening (SK-BR-3): 1.00
- Survival rate of cancer cells in primary screening (BT474): 1.00
- Survival rate of cancer cells in primary screening (T47D): 0.78
- Survival rate of cancer cells in primary screening (EFM192A): 1.00
- Survival rate of cancer cells in primary screening (B16): 0.76
- Survival rate of cancer cells in primary screening (MCF7): 1.00
- Survival rate of cancer cells in primary screening (Hela): 1.00
- Survival rate of cancer cells in primary screening (LCC): 1.00

Sequence: NLTPPSRRATSPIFCVAKHRGGVCECPTIPQGIGEGVKGHSPFEVEG [pACP1349]
- Survival rate of cancer cells in primary screening (HT29): 1.00
- Survival rate of cancer cells in primary screening (Caco2): 1.00
- Survival rate of cancer cells in primary screening (HCT116): 1.00
- Survival rate of cancer cells in primary screening (CT26): 1.00
- Survival rate of cancer cells in primary screening (MDA-MB-231): 1.00
- Survival rate of cancer cells in primary screening (MDA-MB-436): 1.00
- Survival rate of cancer cells in primary screening (MDA-MB-453): 1.00
- Survival rate of cancer cells in primary screening (MDA-MB-468): 1.00
- Survival rate of cancer cells in primary screening (SK-BR-3): 1.00
- Survival rate of cancer cells in primary screening (BT474): 1.00
- Survival rate of cancer cells in primary screening (T47D): 0.62
- Survival rate of cancer cells in primary screening (EFM192A): 1.00
- Survival rate of cancer cells in primary screening (B16): 0.66
- Survival rate of cancer cells in primary screening (MCF7): 1.00
- Survival rate of cancer cells in primary screening (Hela): 1.00
- Survival rate of cancer cells in primary screening (LCC): 1.00
